Assay results: BindingDB's records for doi:10.1124/mol.58.6.1601 (University of California Irvine, 2000)

Experiments:
[1] = target: T1, Cysteinyl leukotriene receptor 1 (Homo sapiens, UniProt Q9Y271)
T1 sequence (Q9Y271 whole entry): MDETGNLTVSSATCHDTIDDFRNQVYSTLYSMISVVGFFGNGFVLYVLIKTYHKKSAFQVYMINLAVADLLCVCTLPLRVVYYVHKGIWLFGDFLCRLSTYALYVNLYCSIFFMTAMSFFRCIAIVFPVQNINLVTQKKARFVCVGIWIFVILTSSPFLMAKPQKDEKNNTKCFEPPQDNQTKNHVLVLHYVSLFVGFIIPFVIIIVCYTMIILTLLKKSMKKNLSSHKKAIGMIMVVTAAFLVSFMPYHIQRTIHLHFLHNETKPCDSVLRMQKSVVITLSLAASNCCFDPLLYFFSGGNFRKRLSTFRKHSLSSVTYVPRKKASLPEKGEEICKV

[2] = target: T2, Cysteinyl leukotriene receptor 2 (Homo sapiens, UniProt Q9NS75)
T2 sequence (Q9NS75 whole entry): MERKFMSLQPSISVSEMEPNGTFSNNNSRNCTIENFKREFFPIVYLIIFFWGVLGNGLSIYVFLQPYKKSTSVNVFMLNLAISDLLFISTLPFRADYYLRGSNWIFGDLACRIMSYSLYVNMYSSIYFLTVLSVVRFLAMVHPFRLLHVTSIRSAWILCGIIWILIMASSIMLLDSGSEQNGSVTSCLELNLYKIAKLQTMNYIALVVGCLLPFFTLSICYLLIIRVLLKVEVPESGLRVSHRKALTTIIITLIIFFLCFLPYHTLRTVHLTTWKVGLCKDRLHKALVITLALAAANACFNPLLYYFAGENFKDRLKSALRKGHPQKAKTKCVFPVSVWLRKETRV

Row | Ki [1] [nM] | Ki [2] [nM] | SMILES
1 | 10.4 | 1000 | CN(C)C(=O)CCSC(SCCC(=O)O)c1cccc(/C=C/c2ccc3ccc(Cl)cc3n2)c1 (stereo not drawn) [3-(((3-(2-(7-chloroquinoline-2-yl)ethenyl)phenyl)((3-dimethylamino-3-oxopropyl)thio)methyl)thio)propanoic acid]
2 | – | 300 | CCCCC/C=C\C/C=C/C=C/C=C/[C@@H](Sc1ccc(C(=O)O)cc1)[C@@H](O)CCCC(=O)O [CAS_134733-55-4]
